Laboratory results taken from patent US8420627B2, “Nasal, wound and skin formulations and methods for control of antibiotic-resistant staphylococci and other gram-positive bacteria” (priority 2009, dated 2013).
Entries after “also recorded” stand apart in the source; their conditions may differ. Read-outs that look alike come from different tables or passages of the source.

How the values were obtained:
S. aureus = settings: Glycerol Esters of Fatty Acids; cited from earlier work
[1] = system: Staphylococcus aureus MRSA, ATCC 33591; assay: in vitro Minimum Inhibitory Concentration (MIC), growth/no growth in dilution tubes; type: cell-based; settings: for Concentration of the component at which bactericidal activity is still maintained in the three-component combination: dodecanol, glycerol monolaurate and benzoic acid combined; for MIC of Glycerol monolaurate in two-component combination: combined with 40 μg/mL Dodecanol; on Growth or No Growth: key: Growth (+); No Growth (0)
Procedure: (§1) Now reported are in vitro Minimum Inhibitory Concentrations (MIC) for dodecanol against Staphylococcus aureus MRSA, ATCC 33591, Staphylococcus aureus VISA (Vancomycin intermediate sensitivity) ATCC 700699, and Enterococcus faecalis ATCC 51299 (formerly Streptococcus faecalis VREF (vancomycin resistant)). One tenth of a cc of dodecanol was diluted with 50 cc of polyethylene glycol 400 and 449.9 cc of sterilized deionized water, followed by five doubling dilutions. […] When combined with the other components of the formulation, a synergistic effect is seen such that bactericidal activity is still maintained even when the concentration of dodecanol is reduced to 20 μg/mL.
(§2) Now reported are in vitro Minimum Inhibitory Concentrations (MIC) for glycerol monolaurate against Staphylococcus aureus MRSA, ATCC 33591, Staphylococcus aureus VISA (Vancomycin intermediate sensitivity) ATCC 700699 and Vancomycin resistant Enterococcus faecalis ATCC 51299 (formerly Streptococcus faecalis VRSF). […] When combined with the other components of the formulation a synergistic effect is seen such that bactericidal activity is still maintained even when the concentration of glycerol monolaurate is reduced to 15 μg/mL.
The Minimum Inhibitory Concentration (MIC) for benzoic acid was determined against Staphylococcus aureus MRSA.
The MIC for dodecanol was experimentally determined to be about 83 micrograms/mL, the MIC for glycerol monolaurate was experimentally determined to be about 62.5 micrograms/mL, and the MIC for benzoic acid was experimentally determined to be about 1250 micrograms/mL. […] When a third component, the organic acid benzoic acid, was added to the formulation, the MICs for all three were much lower.

Staphylococcus = settings: cited from earlier work
[2] = system: Staphylococcus aureus VISA (Vancomycin intermediate sensitivity) ATCC 700699; assay: in vitro Minimum Inhibitory Concentration (MIC), growth/no growth in dilution tubes; type: cell-based; settings: for MIC: Staphylococcus aureus, read-out: MIC (Minimum Inhibitory Concentration); on Growth or No Growth: key: Growth (+); No Growth (0)
Procedure: as §1, §2

[3] = system: Vancomycin resistant Enterococcus faecalis ATCC 51299; assay: as above; type: cell-based; on Growth or No Growth: key: Growth (+); No Growth (0)
Procedure: as §1, §2

[4] = system: Staphylococcus aureus MRSA, ATCC 33591; assay: In vitro time-kill, one minute contact; type: cell-based; settings: for CFU Recovered: Initial Count 5.6 × 10^6
Procedure: (§3) Dodecanol and glycerol monolaurate were diluted to 2,000 micrograms/mL and then diluted to the following concentrations: Dodecanol: 100 micrograms/mL and glycerol monolaurate: 250 micrograms/mL. Each challenge organism was confirmed by Gram stain and colony morphology. […] Log reductions and percent reductions presented in Tables VII and VIII below were calculated using the following equations: […]
The nasal formulation of the invention was tested against S. aureus MRSA, ATCC 33591. The contact time for the formulation with the bacteria was one minute, after which time, an 8.3 log reduction in bacterial count was observed.
The hand and body wash formulation of the invention was tested against S. aureus MRSA, ATCC 33591 and MDR Klebsiella pneumoniae ATCC CI-2004.

[5] = system: Enterococcus faecalis ATCC 51299; assay: In vitro time-kill, one minute contact; type: cell-based; settings: for CFU Recovered: Initial Count 5.6 × 10^6
Procedure: as §3

[6] = system: Staphylococcus aureus VISA, ATCC 700699; assay: In vitro time-kill, one minute contact; type: cell-based; settings: for CFU Recovered: Initial Count 5.6 × 10^6
Procedure: as §3

[7] = Irritation of mucous membranes; settings: low concentrations (83 micrograms/mL)
MRSA = assay: Topical treatment of MRSA lesions in patients (case examples); type: in vivo, human; settings: treatment before the formulation ointment; single patients
Excerpt: EXAMPLES OF SUCCESSFUL TREATMENT OF MRSA LESIONS USING THE NOVEL FORMULATIONS OF THE INVENTION ARE PROVIDED BELOW

[8] = Glycerol Monolaurate at 250 μg/mL

SMILES: CCCCCCCCCCCCC(=O)OCC(O)CO (centres unmarked) [13 Carbon Mono, Tridecanoyl monoglyceride]
- Minimum inhibitory concentration for Staphylococcus (S. aureus): No Inhibition

SMILES: O=C(O)c1ccccc1 [Benzoic Acid, benzoic acid]
- Growth or No Growth ([1]; Benzoic Acid 625 μg/mL, S. aureus MRSA, Average CFU/mL 8.9 × 10^6): +
- Growth or No Growth ([1]; Benzoic Acid 1,250 μg/mL, S. aureus MRSA, Average CFU/mL 8.9 × 10^6): 0
- Growth or No Growth ([1]; Benzoic Acid 2,500 μg/mL, S. aureus MRSA, Average CFU/mL 8.9 × 10^6): 0
- Growth or No Growth ([1]; Benzoic Acid 5,000 μg/mL, S. aureus MRSA, Average CFU/mL 8.9 × 10^6): 0
- Growth or No Growth ([1]; Benzoic Acid 10,000 μg/mL, S. aureus MRSA, Average CFU/mL 8.9 × 10^6): 0
- MIC of Benzoic Acid in combination ([1]; Dodecanol (20 μ/mL) and Glycerol Monolaurate (15 μ/mL) held constant, MRSA): <312.5 µg/mL
- MIC ([1]; S. aureus MRSA, Average CFU/mL 8.9 × 10^6, benzoic acid alone): 1250 µg/mL
- MIC ([1]; Staphylococcus aureus, S. aureus MRSA, Average CFU/mL 8.9 × 10^6, benzoic acid alone): 1250 µg/mL
- Concentration of the component at which bactericidal activity is still maintained in the three-component combination ([1]; MRSA): 312.5 µg/mL

SMILES: CCCCCCCCO [C-8]
- Effective Bactericidal Concentration of Primary Alcohols against Staphylococcus (Staphylococcus): 800 Micrograms/mL

SMILES: CCCCCCCCCO [C-9]
- Effective Bactericidal Concentration of Primary Alcohols against Staphylococcus (Staphylococcus): 200 Micrograms/mL

SMILES: CCCCCCCCCCO [C-10]
- Effective Bactericidal Concentration of Primary Alcohols against Staphylococcus (Staphylococcus): 50 Micrograms/mL

SMILES: CCCCCCCCCCCO [C-11]
- Effective Bactericidal Concentration of Primary Alcohols against Staphylococcus (Staphylococcus): 25 Micrograms/mL

SMILES: CCCCCCCCCCCCCO [C-13]
- Effective Bactericidal Concentration of Primary Alcohols against Staphylococcus (Staphylococcus): >800 Micrograms/mL

SMILES: CCCCCCCCCCCCO [Dodecanol, 1-dodecanol]
- MIC ([1]; Staphylococcus aureus, S. aureus MRSA, dodecanol alone, read-out: MIC (Minimum Inhibitory Concentration)): 83 µg/mL
- MIC of Dodecanol in two-component combination ([1]; combined with 30 μg/mL Glycerol monolaurate, S. aureus MRSA): 40 μg/mL Dodecanol
- Concentration of the component at which bactericidal activity is still maintained in the three-component combination ([1]; MRSA): 20 µg/mL
- Growth or No Growth ([1]; final concentration 2.53125 μg/mL, S. aureus MRSA): +
- Growth or No Growth ([1]; final concentration 5.0625 μg/mL, S. aureus MRSA): +
- Growth or No Growth ([1]; final concentration 10.125 μg/mL, S. aureus MRSA): +
- Growth or No Growth ([1]; final concentration 20.25 μg/mL, S. aureus MRSA): +
- Growth or No Growth ([1]; final concentration 41.5 μg/mL, S. aureus MRSA): +
- Growth or No Growth ([1]; final concentration 83 μg/mL, S. aureus MRSA): 0
- MIC ([2]; S. aureus VISA, dodecanol alone): 83 µg/mL
- Growth or No Growth ([2]; final concentration 2.53125 μg/mL, S. aureus VISA): +
- Growth or No Growth ([2]; final concentration 5.0625 μg/mL, S. aureus VISA): +
- Growth or No Growth ([2]; final concentration 10.125 μg/mL, S. aureus VISA): +
- Growth or No Growth ([2]; final concentration 20.25 μg/mL, S. aureus VISA): +
- Growth or No Growth ([2]; final concentration 41.5 μg/mL, S. aureus VISA): +
- Growth or No Growth ([2]; final concentration 83 μg/mL, S. aureus VISA): 0
- MIC ([3]; Enterococcus faecalis, ATCC 51299 / VRE, E. faecalis VRE, dodecanol alone, read-out: MIC (Minimum Inhibitory Concentration)): 83 µg/mL
- Growth or No Growth ([3]; final concentration 2.53125 μg/mL, E. faecalis VRE): +
- Growth or No Growth ([3]; final concentration 5.0625 μg/mL, E. faecalis VRE): +
- Growth or No Growth ([3]; final concentration 10.125 μg/mL, E. faecalis VRE): +
- Growth or No Growth ([3]; final concentration 20.25 μg/mL, E. faecalis VRE): +
- Growth or No Growth ([3]; final concentration 41.5 μg/mL, E. faecalis VRE): +
- Growth or No Growth ([3]; final concentration 83 μg/mL, E. faecalis VRE): 0
- % Reduction ([4]; Dodecanol at 100 μg/mL): 100%
- Log Reduction ([4]; Dodecanol at 100 μg/mL): 6.75
- CFU Recovered ([4]; Dodecanol at 100 μg/mL): <5 × 10^0 CFU per mL
- % Reduction ([5]; Dodecanol at 100 μg/mL): 100%
- Log Reduction ([5]; Dodecanol at 100 μg/mL): 7.04
- CFU Recovered ([5]; Dodecanol at 100 μg/mL): <5 × 10^0 CFU per mL
- % Reduction ([6]; Dodecanol at 100 μg/mL): 100%
- Log Reduction ([6]; Dodecanol at 100 μg/mL): 7.18
- CFU Recovered ([6]; Dodecanol at 100 μg/mL): <5 × 10^0 CFU per mL
- Irritating effects on the mucous membranes [7]: no irritating effects
- Effective Bactericidal Concentration of Primary Alcohols against Staphylococcus (Staphylococcus): 12.5 Micrograms/mL

SMILES: CCCCCCCCCCCC(=O)OCC(O)CO (centres unmarked) [Glycerol Monolaurate, glycerol monolaurate]
- MIC (Minimum Inhibitory Concentration) ([1]; S. aureus MRSA, glycerol monolaurate alone): 62.5 micrograms/mL
- MIC (Minimum Inhibitory Concentration) ([1]; S. aureus MRSA, glycerol monolaurate alone, listed as Glycerol monolaurate): 62.5 micrograms/mL
- MIC ([1]; Staphylococcus aureus, read-out: MIC (Minimum Inhibitory Concentration), S. aureus MRSA, glycerol monolaurate alone): 62.5 µg/mL
- MIC of Glycerol monolaurate in two-component combination ([1]; S. aureus MRSA, listed as Glycerol monolaurate): 30 μg/mL Glycerol monolaurate
- MIC of Glycerol monolaurate in two-component combination ([1]; S. aureus MRSA, listed as glycerol monolaurate): ~30 µg/mL
- Concentration of the component at which bactericidal activity is still maintained in the three-component combination ([1]; MRSA): 15 µg/mL
- Growth or No Growth ([1]; final concentration 31.25 micrograms/mL, S. aureus MRSA): +
- Growth or No Growth ([1]; final concentration 62.5 micrograms/mL, S. aureus MRSA): 0
- Growth or No Growth ([1]; final concentration 125 micrograms/mL, S. aureus MRSA): 0
- Growth or No Growth ([1]; final concentration 250 micrograms/mL, S. aureus MRSA): 0
- MIC [2]: 62.5 µg/mL
- Growth or No Growth ([2]; final concentration 31.25 micrograms/mL, S. aureus VISA): +
- Growth or No Growth ([2]; final concentration 62.5 micrograms/mL, S. aureus VISA): 0
- Growth or No Growth ([2]; final concentration 125 micrograms/mL, S. aureus VISA): 0
- Growth or No Growth ([2]; final concentration 250 micrograms/mL, S. aureus VISA): 0
- MIC ([3]; Enterococcus faecalis, ATCC51299, read-out: MIC (Minimum Inhibitory Concentration)): 125 µg/mL
- Growth or No Growth ([3]; final concentration 31.25 micrograms/mL, Enterococcus faecalis): +
- Growth or No Growth ([3]; final concentration 62.5 micrograms/mL, Enterococcus faecalis): +
- Growth or No Growth ([3]; final concentration 125 micrograms/mL, Enterococcus faecalis): 0
- Growth or No Growth ([3]; final concentration 250 micrograms/mL, Enterococcus faecalis): 0
- % Reduction [4, 8]: 100%
- Log Reduction [4, 8]: 6.75
- CFU Recovered [4, 8]: <5 × 10^0 CFU per mL
- % Reduction [5, 8]: 100%
- Log Reduction [5, 8]: 7.04
- CFU Recovered [5, 8]: <5 × 10^0 CFU per mL
- % Reduction [6, 8]: 100%
- Log Reduction [6, 8]: 7.1
- CFU Recovered [6, 8]: <5 × 10^0 CFU per mL
- Minimum inhibitory concentration for Staphylococcus (S. aureus): 250 micrograms/mL

SMILES: C/C(=C\C(=O)OCCCCCCCCC(=O)O)C[C@@H]1OC[C@H](C[C@@H]2O[C@H]2[C@@H](C)[C@H](C)O)[C@@H](O)[C@H]1O [mupirocin]
- Clinical outcome of prior treatment of MRSA lesions (MRSA): the MRSA was still present in the patient's sinuses; also recorded: unsuccessfully treated
